Assay results: article PMC10931833, “Simultaneous Purification of Human Interferon Alpha-2b and Serum Albumin Using Bioprivileged Fluorinated Ionic Liquid-Based Aqueous Biphasic Systems” (International Journal of Molecular Sciences, 2024)

How the values were obtained:
[1] = ref 44 (IFN-α2b), 91 (BSA), 96 (Lys); cited from earlier work
FITC-BSA = target: T1, FITC-BSA (Bos taurus, UniProt P02769); assay: MST binding to FITC-BSA; set-up: species or system bovine; details: 0.41 μM BSA
T1 construct: purchased Millipore Sigma-Aldrich
T1 sequence (P02769 25-607): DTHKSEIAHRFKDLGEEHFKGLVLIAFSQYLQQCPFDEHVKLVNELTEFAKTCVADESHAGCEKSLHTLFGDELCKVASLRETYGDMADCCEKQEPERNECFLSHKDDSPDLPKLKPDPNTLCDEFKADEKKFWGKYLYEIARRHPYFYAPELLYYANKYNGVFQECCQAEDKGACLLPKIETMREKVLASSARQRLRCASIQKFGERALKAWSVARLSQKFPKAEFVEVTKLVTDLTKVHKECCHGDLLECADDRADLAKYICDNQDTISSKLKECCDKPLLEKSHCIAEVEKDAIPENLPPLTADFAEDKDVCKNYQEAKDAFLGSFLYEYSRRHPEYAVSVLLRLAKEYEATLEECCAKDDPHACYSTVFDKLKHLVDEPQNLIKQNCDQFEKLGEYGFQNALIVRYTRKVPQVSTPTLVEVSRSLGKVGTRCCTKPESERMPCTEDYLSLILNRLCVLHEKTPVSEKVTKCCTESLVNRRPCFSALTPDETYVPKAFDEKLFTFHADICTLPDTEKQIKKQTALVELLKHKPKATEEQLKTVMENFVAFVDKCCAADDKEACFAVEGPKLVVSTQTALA
Experimental: Herein, a commercial FITC labeling kit (Section 3) was used to fluorescently tag both IFN- α 2b and BSA. Typically, in the labeling process, one amine per protein is labeled, statistically distributing the position of the dye. […] The MST assay was performed as detailed in Section 3. The solutions were prepared with a concentration of IFN- α 2b and BSA fixed at 0.41 μ M in water. For IFN- α 2b a concentration of 2.7 μ M was also prepared to compare it with previous results on MST-binding between FILs and IFN- α 2b fluorescently labeled with a different tag. In each run of MST, a maximum concentration of a ligand is selected and consecutively diluted in sixteen capillaries. […] The experimental conditions of the MST assay only allow the study of the aggregation phenomenon individually for the first CAC.
Microscale thermophoresis (MST) measurements of the dye-labeled protein were used to conduct binding investigations. […] MST tests were conducted in a monolith NT.115 (blue/red) in accordance with the NanoTemper Technologies methodology. Medium MST power and 20% LED power (nano-blue) were set as the instrument’s default settings. For every MST measurement, a PBS buffer was used. The concentration of FITC-BSA was fixed at 0.4 μ M and FITC-IFN- α 2b was tested under two different concentrations (of 0.4 and 2.7 μ M). The ligand was used to create a set of 16 1:1 dilutions, with the starting ligand concentrations ranging from 10 to 400 mM. The typical parameters for MST traces were used for recording: […], 30 s MST power on, and 5 s MST power off. The data from three independently conducted pipetted experiments were examined using NanoTemper Technologies’ MO.Affinity Analysis software, version 2.3.

BSA [2] = target: T2, BSA (Bos taurus, UniProt P02769); assay: DSC thermal unfolding of BSA in water and aqueous solutions of ABS phase-forming components; type: physicochemical, bovine; details: for Tm / ΔG / ΔHcal / ΔHcal/ΔHvH / ΔHvH / ΔS: 1.0 mg/mL BSA
T2 construct: purchased Millipore Sigma-Aldrich
T2 sequence (P02769 25-607): as above
Experimental: Differential scanning calorimetry (DSC) measurements were performed with Nano DSC equipment, as detailed in Section 3, and used to determine the melting temperature (T m ) and enthalpy ( Δ H) of protein unfolding. DSC analyzes changes in the structure and stability of proteins as thermal transitions at the nanoscale. Using DSC to measure heat capacity as a function of the temperature of a well-studied protein such as BSA provides keen insights into folding and unfolding processes, as well as factors affecting stability. Due to the volume and concentration requirements of the DSC technique, and the constraints in available quantities of IFN- α 2b the DSC experiments on the ABS phase-forming components’ effect on the structural properties of proteins were attained only for BSA.
The T m of BSA, which corresponds to the thermal unfolding transition midpoint, was measured in the absence and presence of the ABS phase-forming components at increasing concentrations (see Figure 1 and Table 2).

BSA [3] = target: T2, BSA; assay: Far-UV CD secondary structure of BSA (CONTIN-LL deconvolution); type: physicochemical, bovine; details: 1.0 mg/mL BSA, 25 °C
Source text: Circular dichroism (CD) is widely used to study the secondary structures of proteins, peptides and nucleic acids, because it requires a low concentration sample, is a nondestructive method, allows studying a wide range of variables (temperature, pH, etc.), and provides information on the effect of added ligands on protein folding and interactions. Far-UV (190–260 nm) CD spectroscopy was used to assess the IFN- α 2b and BSA secondary structure since the spectra are characteristic of different structural elements.
Circular dichroism (CD) spectra were collected in a 10 mm quartz cuvette and a Chirascan spectropolarimeter (Applied Photophysics, UK) at room temperature. All CD spectra were recorded in the far-UV range of 190 to 260 nm at scan rates of 50 nm/min, with 4 accumulations, and a response time of 3 s; CD spectra were collected. For each CD experiment, two distinct duplicates were acquired and combined. BSA was fixed at 1 mg/mL, solvent concentrations ranging from 0.1 to 200 mM were used, and the spectra were translated to MRE after being expressed in terms of molar ellipticity. Spectral deconvolution was carried out with DichroWeb using the CONTIN-LL deconvolution algorithm with the SMP180 reference set.

BSA [4] = target: T2, BSA; assay: CD thermal unfolding (Tm) of BSA; type: physicochemical, bovine; details: 1.0 mg/ml BSA, 200 mM component aqueous solution
Source text: The thermal stability assessed by far-UV CD is solely determined through the thermal decay of the alpha-helical structure.

lysozyme
iso-electric point [1]: approximately 11.0

C[N+](C)(C)CCO.C[N+](C)(C)CCO.O=P([O-])(O)O.O=P([O-])(O)O [[N1112(OH)][H2PO4], Choline ((2-hydroxyethyl)trimethylammonium) dihydrogen phosphate]
Kd (FITC-BSA; max. conc. first capillary 12.5 mM (monomer)): no binding detected | Kd (FITC-BSA; max. conc. first capillary 400 mM (monomer)): no binding detected | Tm (BSA [2]; 0.1 mM component): 75.36 °C | ΔG (BSA [2]; 0.1 mM component): 15.2 kcal/mol | ΔHcal (BSA [2]; 0.1 mM component): 105.9 kcal/mol | ΔHcal/ΔHvH (BSA [2]; 0.1 mM component): 0.949 | ΔHvH (BSA [2]; 0.1 mM component): 111.6 kcal/mol | ΔS (BSA [2]; 0.1 mM component): 1.272 KJ/(mol.K) | Tm (BSA [2]; 1 mM component): 81.59 °C | ΔG (BSA [2]; 1 mM component): 18.02 kcal/mol | ΔHcal (BSA [2]; 1 mM component): 112.4 kcal/mol | ΔHcal/ΔHvH (BSA [2]; 1 mM component): 0.613 | ΔHvH (BSA [2]; 1 mM component): 183.3 kcal/mol | ΔS (BSA [2]; 1 mM component): 1.325 KJ/(mol.K) | Tm (BSA [2]; 5 mM component): 80.80 °C | ΔG (BSA [2]; 5 mM component): 25.72 kcal/mol | ΔHcal (BSA [2]; 5 mM component): 162.2 kcal/mol | ΔHcal/ΔHvH (BSA [2]; 5 mM component): 1.081 | ΔHvH (BSA [2]; 5 mM component): 150 kcal/mol | ΔS (BSA [2]; 5 mM component): 1.915 KJ/(mol.K) | Tm (BSA [2]; 10 mM component): 73.90 °C | ΔG (BSA [2]; 10 mM component): 17.42 kcal/mol | ΔHcal (BSA [2]; 10 mM component): 122.8 kcal/mol | ΔHcal/ΔHvH (BSA [2]; 10 mM component): 0.998 | ΔHvH (BSA [2]; 10 mM component): 123 kcal/mol | ΔS (BSA [2]; 10 mM component): 1.479 KJ/(mol.K) | effect on BSA Tm (DSC) (BSA [2]; tested concentration range vs water): maintained | Distorted Alpha Helix (BSA [3]; 0.1 mM component): 0.204 | Distorted Beta Sheet (BSA [3]; 0.1 mM component): 0.031 | Regular Alpha Helix (BSA [3]; 0.1 mM component): 0.397 | Regular Beta Sheet (BSA [3]; 0.1 mM component): 0.000 | Turns (BSA [3]; 0.1 mM component): 0.147 | Unordered (BSA [3]; 0.1 mM component): 0.221 | Distorted Alpha Helix (BSA [3]; 1 mM component): 0.210 | Distorted Beta Sheet (BSA [3]; 1 mM component): 0.023 | Regular Alpha Helix (BSA [3]; 1 mM component): 0.393 | Regular Beta Sheet (BSA [3]; 1 mM component): 0.000 | Turns (BSA [3]; 1 mM component): 0.132 | Unordered (BSA [3]; 1 mM component): 0.242 | Distorted Alpha Helix (BSA [3]; 5 mM component): 0.203 | Distorted Beta Sheet (BSA [3]; 5 mM component): 0.023 | Regular Alpha Helix (BSA [3]; 5 mM component): 0.377 | Regular Beta Sheet (BSA [3]; 5 mM component): 0.004 | Turns (BSA [3]; 5 mM component): 0.128 | Unordered (BSA [3]; 5 mM component): 0.265 | Distorted Alpha Helix (BSA [3]; 25 mM component): 0.195 | Distorted Beta Sheet (BSA [3]; 25 mM component): 0.029 | Regular Alpha Helix (BSA [3]; 25 mM component): 0.36 | Regular Beta Sheet (BSA [3]; 25 mM component): 0.015 | Turns (BSA [3]; 25 mM component): 0.136 | Unordered (BSA [3]; 25 mM component): 0.266 | Distorted Alpha Helix (BSA [3]; 55 mM component): 0.150 | Distorted Beta Sheet (BSA [3]; 55 mM component): 0.055 | Regular Alpha Helix (BSA [3]; 55 mM component): 0.242 | Regular Beta Sheet (BSA [3]; 55 mM component): 0.080 | Turns (BSA [3]; 55 mM component): 0.153 | Unordered (BSA [3]; 55 mM component): 0.320 | Distorted Alpha Helix (BSA [3]; 90 mM component): 0.171 | Distorted Beta Sheet (BSA [3]; 90 mM component): 0.044 | Regular Alpha Helix (BSA [3]; 90 mM component): 0.294 | Regular Beta Sheet (BSA [3]; 90 mM component): 0.057 | Turns (BSA [3]; 90 mM component): 0.145 | Unordered (BSA [3]; 90 mM component): 0.289 | Distorted Alpha Helix (BSA [3]; 120 mM component): 0.207 | Distorted Beta Sheet (BSA [3]; 120 mM component): 0.029 | Regular Alpha Helix (BSA [3]; 120 mM component): 0.396 | Regular Beta Sheet (BSA [3]; 120 mM component): 0.018 | Turns (BSA [3]; 120 mM component): 0.141 | Unordered (BSA [3]; 120 mM component): 0.208 | Distorted Alpha Helix (BSA [3]; 200 mM component): 0.202 | Distorted Beta Sheet (BSA [3]; 200 mM component): 0.032 | Regular Alpha Helix (BSA [3]; 200 mM component): 0.386 | Regular Beta Sheet (BSA [3]; 200 mM component): 0.021 | Turns (BSA [3]; 200 mM component): 0.146 | Unordered (BSA [3]; 200 mM component): 0.212 | Tm, Ellipticity 192 nm (BSA [4]): 65.691 °C | Tm, Ellipticity 208 nm (BSA [4]): 76.945 °C | Tm, Ellipticity 222 nm (BSA [4]): 66.702 °C
